Laboratory results: US4237273A, “Bis(nitrosoureido)-polyol derivatives” (Richter Gedeon Vegyeszeti Gyar RT, priority 1977, dated 1980)

Tests used:
BDF1 mice = assay: Acute toxicity (LD50), 21 days observation; assay type: in vivo; details: BDF1 mice of both sexes
Procedure: Species: BDF1 mice of both sexes
Treatment: a volume of 0.2 ml./10 g. body weight of a suspension of the tested compounds in water containing 2% of Tween-80 was used.
Number of animals: 10/dose
Observation time: 21 days

L-120 leukemia = assay: Antitumour activity, L-1210 leukemia (Table 2); assay type: in vivo, BDF1 mice; details: from the 2nd day; for Recovery (90 day survival): animals recovered/treated
Procedure: (§1) The leukemia and ascites type tumours were transplanted intraperitoneally, using an amount of 10^5 -10^7 cells, while in the case of solid tumours, small pieces of tumours were implanted subcutaneously with a trocar. Treatment:
(§2) Mice were treated with a volume of 0.1 ml./10 g. body-weight of a suspension of the tested compounds in water containing 2% of Tween-80, while rats were treated with a volume of 0.1 ml./100 g. bodyweight of a suspension of the tested compounds in water containing 5% of Tween-80.
(§3) The ascites and leukemia-type tumours were evaluated with the exception of the Rausher leukemia by the increase of the life span and by complete recovery. [formula]
(§4) Recovery=90 days of tumour free life after transplantation.

P-388 leukemia = assay: Antitumour activity, P-388 leukemia (Table 2); assay type: in vivo, BDF1 mice; details: 12.0 mg./kg. 4× i.p., from the 2nd day; animals recovered/treated
Procedure: as §1, §2, §3, §4

NK/Ly ascites lymphoma = assay: Antitumour activity, NK/Ly ascites lymphoma (Table 2); assay type: in vivo, CFLP mice; details: from the 2nd day; for Recovery (90 day survival): animals recovered/treated
Procedure: as §1, §2, §3, §4

Ehrlich acites carcinoma = assay: Antitumour activity, Ehrlich ascites carcinoma (Table 2); assay type: in vivo, CFLP mice; details: 1.5 mg./kg. 4× i.p., from the 2nd day; animals recovered/treated
Procedure: as §1, §2, §3, §4

Rausher leukemia = assay: Antitumour activity, Rauscher leukemia, spleen weight (Table 3); assay type: in vivo, CFLP mice; details: 10.0 mg./kg. 6× i.p., from the 2nd day
Procedure: as §1, §2
(§5) In the case of solid tumours (Harding-Passey melanoma, S-180 and Yoshida sarcoma) the tumours were removed on the 8 to 14th day, and the inhibition was calculated by the weight of the tumours, using the following formula: [formula]
A similar method was applied in the case of the Rauscher leukemia too, but the weight of the spleen was taken, instead of the tumour, in the formula mentioned above.

Harding-Passey melanoma = assay: Antitumour activity, Harding-Passey melanoma, tumour weight (Table 3); assay type: in vivo, CFLP mice; details: from the 4th day after transplantation
Procedure: as §1, §2, §5

S-180 s.c. sarcoma = assay: Antitumour activity, S-180 s.c. sarcoma, tumour weight (Table 3); assay type: in vivo, CFLP mice; details: from the 2nd day
Procedure: as §1, §2, §5

Yoshida s.c. sarcoma = assay: Antitumour activity, Yoshida s.c. sarcoma, tumour weight (Table 3); assay type: in vivo, CFY rats; details: from the 2nd day
Procedure: as §1, §2, §5

[1] = system: Developed Yoshida s.c. sarcoma; assay: Recovery from developed Yoshida s.c. sarcoma, treated on 6th day (Table 4); assay type: in vivo, CFY rats; details: 50 mg./kg. 1× i.p. on 6th day; animals recovered/treated
Procedure: as §1, §2, §4

[2] = system: Ehrlich ascites carcinoma; assay: Duration of activity: total cell number in Ehrlich ascites carcinoma; assay type: in vivo, Mice; details: i.p. on the 6th day after transplantation, equitoxic doses
Procedure: (§6) Mice, being infected with Ehrlich ascites carcinoma, were treated intraperitoneally on the 6th day after transplantation with equitoxic doses of compounds 1, 2 and 6. The duration of the activity was investigated by determining the total cell number and the way of action by determining the mitosis index* and the thymidine index**. It could be shown that both compounds 1 and 2 inhibit the increase of the total cell number for 35 days, while a similar inhibition of the reference compound 6 lasts only for 17 days. As far as the quality of the activity is concerned, compounds 1 and 2 decrease the mitosis-index and the thymidine index in 24 hours by 90%, while in the case of compound 6 the decrease amounts only to 45 to 50%, and the maximum is reached on the 4th day.

[3] = system: Ehrlich ascites carcinoma; assay: Way of activity: mitosis index in Ehrlich ascites carcinoma; assay type: in vivo, Mice; details: in 24 hours; i.p. on 6th day, equitoxic doses
Procedure: as §6
*mitosis index=number of dividing cells/1000 tumour cells

[4] = system: Ehrlich ascites carcinoma; assay: Way of activity: thymidine index (3H-thymidine incorporation into DNS) in Ehrlich ascites carcinoma; assay type: in vivo, Mice; details: in 24 hours; i.p. on 6th day, equitoxic doses
Procedure: as §6
**thymidine index=^3 H-thymidine incorporation into the DNS of the tumour cell.

1,4-bis[3-(2-chloroethyl)-N-nitrosoureido]-1,4-dideoxy-D,L-threitol [Compound 1]
LD50 value i.p. (BDF1 mice; i.p.): 80 mg/kg
LD50 value p.o. (BDF1 mice; p.o.): 135 mg/kg
Increase in life span (L-120 leukemia; 7.5 mg./kg. 1× i.p.): 45%
Recovery (90 day survival) (L-120 leukemia; 7.5 mg./kg. 1× i.p.): 2/8
Increase in life span (L-120 leukemia; 12.5 mg./kg. 1× p.o.): 23%
Recovery (90 day survival) (L-120 leukemia; 12.5 mg./kg. 1× p.o.): 1/8
Increase in life span (L-120 leukemia; 12.5 mg./kg. 3× p.o.): 30%
Recovery (90 day survival) (L-120 leukemia; 12.5 mg./kg. 3× p.o.): 3/8
Increase in life span (L-120 leukemia; 15.0 mg./kg. 1× i.p.): 29%
Recovery (90 day survival) (L-120 leukemia; 15.0 mg./kg. 1× i.p.): 3/8
Increase in life span (L-120 leukemia; 25.0 mg./kg. 1× p.o.): 111%
Recovery (90 day survival) (L-120 leukemia; 25.0 mg./kg. 1× p.o.): 3/8
Recovery (90 day survival) (L-120 leukemia; 25.0 mg./kg. 3× p.o.): 6/8
Increase in life span (L-120 leukemia; 30.0 mg./kg. 1× i.p.): 230%
Recovery (90 day survival) (L-120 leukemia; 30.0 mg./kg. 1× i.p.): 7/8
Increase in life span (L-120 leukemia; 50.0 mg./kg. 1× p.o.): 84%
Recovery (90 day survival) (L-120 leukemia; 50.0 mg./kg. 1× p.o.): 4/8
Recovery (90 day survival) (P-388 leukemia): 7/8
Recovery (90 day survival) (NK/Ly ascites lymphoma; 1.5 mg./kg. "433" i.p.): 6/8
Recovery (90 day survival) (NK/Ly ascites lymphoma; 3.0 mg./kg. 4× i.p.): 8/8
Increase in life span (NK/Ly ascites lymphoma; 30.0 mg./kg. 4× p.o.): 89%
Recovery (90 day survival) (NK/Ly ascites lymphoma; 30.0 mg./kg. 4× p.o.): 1/7
Recovery (90 day survival) (Ehrlich acites carcinoma): 6/8
Inhibition (spleen weight) (Rausher leukemia): 78%
Inhibition (tumour weight) (Harding-Passey melanoma; 10.0 mg./kg. 5× p.o.): 96%
Inhibition (tumour weight) (Harding-Passey melanoma; 24.0 mg./kg. 1× i.p.): 81%
Inhibition (tumour weight) (S-180 s.c. sarcoma; 3.0 mg./kg. 2× i.p.): 43%
Inhibition (tumour weight) (S-180 s.c. sarcoma; 10.0 mg./kg. 4× p.o.): 42%
Inhibition (tumour weight) (S-180 s.c. sarcoma; 12.0 mg./kg. 4× i.p.): 80%
Inhibition (tumour weight) (Yoshida s.c. sarcoma; 12 mg./kg. 4× i.p.): 99%
Inhibition (tumour weight) (Yoshida s.c. sarcoma; 24 mg./kg. 1× i.p.): 76%
Recovery (90 day survival) [1]: 5/7
Duration of inhibition of the increase of the total cell number [2]: 35 days
Decrease of the mitosis-index [3]: 90%
Decrease of the thymidine index [4]: 90%
